Strand notation (5' to 3'): a small letter for the sugar, then the base; units joined by * are phosphorothioate-linked, units joined directly phosphodiester-linked; [ ] holds rarer units or linkages, { } end groups; capitals alone tell only the bases. d = 2'-deoxy (DNA); r = 2'-OH (RNA)
Legend:
[1] = tested on: GPC2 mRNA; experiment: GPC2 mRNA knockdown in multiple cancer cell lines, 96 hour (Example 3); type: cell-based, human; conditions: 96 hour incubation
Description: siRNAs 1-5 from Table 7 were diluted to 40 nM in OptiMEM media and mixed in a 1:3 ratio (weight by volume) with RNAiMAX. This was incubated for 15 minutes at room temperature and dispensed onto cells plated in a 6 well tissue culture plate. Total RNA samples were collected at either 72 hours post transfection to compare knockdown efficiency (FIG. 2A), or at 24, 48, 72 or 96 hours post transfection to determine the extent of GPC2 mRNA knockdown over time (FIG. 2B). Expression levels of mRNA of GPC2 were measured in these samples using primers specific for GPC2 obtained commercially from Thermofisher (Carlsbad, Calif.) and standard qPCR technique.
GPC2 mRNA knockdown and changes in cell viability were assessed in multiple cancer cell lines. Cells were transfected with either a scrambled control siRNA or with GPC2 siRNA sequence 3 or sequence 5 from Table 7 using the RNAiMAX Lipofectamine kit (Invitrogen, Carlsbad, Calif.) as previously described in Example 2, either in 96 well format (for viability assays) or 6 well format (for knockdown assessment). Following a 96 hour incubation period, cells were washed and the viability measurement was assessed using Cell Titer Glo 2.0. Total RNA was isolated from the 6 well plate samples to determine knockdown efficiency.

[2] = tested on: CHP212, SKNAS and SHSY5Y neuroblastoma cell lines; experiment: Cell viability after siRNA transfection, 96 hour (Example 4, FIG. 3B); type: cell-based; conditions: 96 hour incubation (FIG. 3B)
Description: GPC2 mRNA knockdown was assessed in multiple neuroblastoma cell lines. Cells were transfected with either a scrambled control siRNA, with GPC2 siRNA sequences 3 or 5 from Table 7, or with siRNA sequences generated by Dharmacon (sequences 12-15 from Table 7) using the RNAiMAX Lipofectamine kit (Invitrogen, Carlsbad, Calif.) as previously described. Following a 96 hour incubation period, total RNA samples were collected to compare knockdown efficiency and viability was measured in parallel plated cells.

[3] = tested on: GPC2 mRNA; experiment: GPC2 mRNA knockdown in cell lines of the cisplatin experiment (Example 5); type: cell-based, human
Description: (§1) GPC2 mRNA was reduced using the indicated siRNAs and changes in cell viability were assessed in multiple cancer cell lines, in combination with Cisplatin treatment. Cells were transfected with either a scrambled control siRNA or with GPC2 siRNA sequences 3 or 5 from Table 7 using the RNAiMAX Lipofectamine kit (Invitrogen, Carlsbad, Calif.), as previously described, in either in 96 well (for viability assays) or 6 well format (for total RNA). Cisplatin was added at increasing concentrations (0 to 30 uM) to transfected cells at 24 hours post transfection. Following a 72 hour incubation period, cell viability was measured using Cell Titer Glo 2.0. Total RNA samples were also isolated to measure knockdown efficiency.

[4] = tested on: CHLA-172 cells; experiment: Cisplatin IC50 in siRNA-transfected cells, Cell Titer Glo 2.0 viability (Example 5); type: cell-based
Description: as §1

[5] = tested on: CHLA-90 cells; experiment: as above; type: cell-based
Description: as §1

[6] = tested on: COV362 cells; experiment: as above; type: cell-based
Description: as §1

[7] = tested on: KELLY cells; experiment: as above; type: cell-based; conditions: KELLY cells transfected with the labelled siRNA; cisplatin added 24 hours post transfection, 72 hour incubation
Description: as §1

[8] = tested on: RH30 cells; experiment: as above; type: cell-based
Description: as §1

[9] = tested on: RH41 cells; experiment: as above; type: cell-based; conditions: RH41 cells transfected with the labelled siRNA; cisplatin added 24 hours post transfection, 72 hour incubation
Description: as §1

[10] = tested on: SNU16 cells; experiment: as above; type: cell-based
Description: as §1

[11] = tested on: TC32 cells; experiment: as above; type: cell-based
Description: as §1

[12] = tested on: TC71 cells; experiment: as above; type: cell-based
Description: as §1

[13] = tested on: TOV112D cells; experiment: as above; type: cell-based
Description: as §1

[14] = tested on: CHLA-90 cells; experiment: Cyclophosphamide IC50 in siRNA-transfected cells, Cell Titer Glo 2.0 viability (Example 7); type: cell-based; conditions: for IC50: CHLA-90 cells transfected with the labelled siRNA, cyclophosphamide added 24 hr post transfection, 72 hour incubation
Description: (§2) GPC2 mRNA expression was reduced with the indicated siRNAs and changes in cell viability were assessed in multiple neuroblastoma cell lines. Cells were transfected with either a control siRNA or with GPC2 siRNA sequences 3, 5 or 7 from Table 7 using the RNAiMAX Lipofectamine kit (Invitrogen, Carlsbad, Calif.) as previously described in 96 wells for viability assays. Cyclophosphamide was added at increasing concentrations (0-20 uM) to transfected cells at 24 hr post transfection. Following a 72 hour incubation period, viability measurements were made using Cell Titer Glo 2.0.

[15] = tested on: CHP212 cells; experiment: as above; type: cell-based; conditions: for Data Summary: effect of knockdown on sensitivity to cyclophosphamide: CHP212; for IC50: CHP212 cells transfected with the labelled siRNA, cyclophosphamide added 24 hr post transfection, 72 hour incubation
Description: as §2

[16] = tested on: SH-SY5Y cells; experiment: as above; type: cell-based; conditions: for Data Summary: effect of knockdown on sensitivity to cyclophosphamide: SH-SY5Y; for IC50: SH-SY5Y cells transfected with the labelled siRNA, cyclophosphamide added 24 hr post transfection, 72 hour incubation
Description: as §2

[17] = tested on: SK-N-BE2 cells; experiment: as above; type: cell-based; conditions: for Data Summary: effect of knockdown on sensitivity to cyclophosphamide: SK-N-BE2; for IC50: SK-N-BE2 cells transfected with the labelled siRNA, cyclophosphamide added 24 hr post transfection, 72 hour incubation
Description: as §2

[18] = GIST-T1 (Gastrointestinal Stromal)

“GPC2 siRNA 3: siRNA duplex: sense CCUGCUUGGACCUCGAUAA[dT][dT] (SEQ ID NO: 207), anti-sense UUAUCGAGGUCCAAGCAGG[dT][dT] (SEQ ID NO: 208) (sense CCUGCUUGGACCUCGAUAANN; antisense UUAUCGAGGUCCAAGCAGGNN; 3' dTdT overhangs, chemistry not fully specified; listed as Homo sapiens)” was tested, and the “% GPC2 knockdown” value ([1]; CHP212 (Neuroblastoma)) was 50%, the “% GPC2 knockdown” value ([1]; COV362 (Ovarian Carcinoma)) was 85% and the “% GPC2 knockdown” value [1, 18] was 61%. The “% GPC2 knockdown” value ([1]; IMR32 (Neuroblastoma)) was 36%, the “% GPC2 knockdown” value ([1]; MCF7 (Breast)) was 72% and the “% GPC2 knockdown” value ([1]; RH30 (Rhabdomyosarcoma)) was 78%. For the same substance, the “% GPC2 knockdown” value ([1]; RH41 (Rhabdomyosarcoma)) was 37%, the “% GPC2 knockdown” value ([1]; SKNAS (Neuroblastoma)) was 25% and the “% GPC2 knockdown” value ([1]; SNU16 (Gastric)) was 53%. For the same substance, the “% GPC2 knockdown” value ([1]; TC32 (Ewing's Sarcoma)) was 69%, the “% GPC2 knockdown” value ([1]; TC71 (Ewing's Sarcoma)) was 42% and the “% GPC2 knockdown” value ([1]; TOV112D (Ovarian Carcinoma)) was 89%. For the same substance, the “GPC2 knockdown across the cell lines of Table 8” value ([1]; multiple cancer cell lines) was “GPC2 knockdown was observed in each cell line”, the “Viability decrease among sequences 3, 5, 12-15” value [2] was “greater viability decrease” and the “% GPC2 knockdown” value ([3]; CHLA-90 (Neuroblastoma)) was 50%. The “% GPC2 knockdown” value ([3]; CHLA-136 (Neuroblastoma)) was 25%, the “% GPC2 knockdown” value ([3]; CHLA-172 (Neuroblastoma)) was 5% and the “% GPC2 knockdown” value ([3]; CHP212 (Neuroblastoma)) was 60%. For the same substance, the “% GPC2 knockdown” value ([3]; COV362 (Ovarian cancer)) was 85%, the “% GPC2 knockdown” value [3, 18] was 55% and the “% GPC2 knockdown” value ([3]; KELLY (Neuroblastoma)) was 65%. The “% GPC2 knockdown” value ([3]; RH30 (Rhabdomyosarcoma)) was 80%, the “% GPC2 knockdown” value ([3]; RH41 (Rhabdomyosarcoma)) was 55% and the “% GPC2 knockdown” value ([3]; SH-SY5Y (Neuroblastoma)) was 55%. The “% GPC2 knockdown” value ([3]; SK-N-BE2 (Neuroblastoma)) was 55%, the “% GPC2 knockdown” value ([3]; SKNAS (Neuroblastoma)) was 40% and the “% GPC2 knockdown” value ([3]; SNU16 (Gastric carcinoma)) was 50%. For the same substance, the “% GPC2 knockdown” value ([3]; TC32 (Ewing's sarcoma)) was 70%, the “% GPC2 knockdown” value ([3]; TC71 (Ewing's sarcoma)) was 55% and the “% GPC2 knockdown” value ([3]; TOV112D (Ovarian cancer)) was 90%. For the same substance, the “Data Summary: effect of knockdown on sensitivity to cisplatin” value (shortened to “Data Summary: effect … to cisplatin”) ([4]; CHLA-172) was “does not increase”, the IC50 ([4]; CHLA-172 cells transfected with the labelled siRNA, cisplatin added 24 hours post transfection, 72 hour incubation) was 16000 nM and the “Data Summary: effect … to cisplatin” value ([5]; CHLA-90) was “increases sensitivity to”. For the same substance, the IC50 ([5]; CHLA-90 cells transfected with the labelled siRNA, cisplatin added 24 hours post transfection, 72 hour incubation) was 15000 nM, the “Data Summary: effect … to cisplatin” value ([6]; COV362) was “does not increase” and the IC50 ([6]; COV362 cells transfected with the labelled siRNA, cisplatin added 24 hours post transfection, 72 hour incubation) was 6400 nM. The IC50 [7] was 21700 nM, the “Data Summary: effect … to cisplatin” value ([8]; RH30) was “does not increase” and the IC50 ([8]; RH30 cells transfected with the labelled siRNA, cisplatin added 24 hours post transfection, 72 hour incubation) was 2100 nM. For the same substance, the IC50 [9] was 3200 nM, the “Data Summary: effect … to cisplatin” value ([10]; SNU16) was “does not increase” and the IC50 ([10]; SNU16 cells transfected with the labelled siRNA, cisplatin added 24 hours post transfection, 72 hour incubation) was 16000 nM. The “Data Summary: effect … to cisplatin” value ([11]; TC32) was “does not increase”, the IC50 ([11]; TC32 cells transfected with the labelled siRNA, cisplatin added 24 hours post transfection, 72 hour incubation) was 2300 nM and the “Data Summary: effect … to cisplatin” value ([12]; TC71) was “does not increase”. The IC50 ([12]; TC71 cells transfected with the labelled siRNA, cisplatin added 24 hours post transfection, 72 hour incubation) was 1300 nM, the “Data Summary: effect … to cisplatin” value ([13]; TOV112D) was “does not increase” and the IC50 ([13]; TOV112D cells transfected with the labelled siRNA, cisplatin added 24 hours post transfection, 72 hour incubation) was 5000 nM. For the same substance, the IC50 [14] was 30000 nM, the “Data Summary: effect of knockdown on sensitivity to cyclophosphamide” value (from here on “Data Summary: effect … to cyclophosphamide”) [15] was “increases sensitivity to” and the IC50 [15] was 870 nM. For the same substance, the “Data Summary: effect … to cyclophosphamide” value [16] was “increases sensitivity to”, the IC50 [16] was 1500 nM and the “Data Summary: effect … to cyclophosphamide” value [17] was “increases sensitivity to”. For the same substance, the IC50 [17] was 2410 nM.

In the case of “GPC2 siRNA 7: siRNA duplex: sense CUCCUUUCUGGUUCACACA[dT][dT] (SEQ ID NO: 215), anti-sense UGUGUGAACCAGAAAGGAG[dT][dT] (SEQ ID NO: 216) (sense rCrUrCrCrUrUrUrCrUrGrGrUrUrCrArCrArCrAdTdT; antisense rUrGrUrGrUrGrArArCrCrArGrArArArGrGrArGdTdT; listed as Homo sapiens)”, the “Data Summary: effect … to cyclophosphamide” value ([14]; CHLA-90) is reported as “increases sensitivity to”, the IC50 [14] is reported as 10000 nM and the “Data Summary: effect … to cyclophosphamide” value [15] is reported as “increases sensitivity to”. For the same substance, the IC50 [15] was 1200 nM, the “Data Summary: effect … to cyclophosphamide” value [16] was “increases sensitivity to” and the IC50 [16] was 940 nM. For the same substance, the “Data Summary: effect … to cyclophosphamide” value [17] was “increases sensitivity to” and the IC50 [17] was 410 nM.
